This passage reports DC50 and Dmax results from patent publication US12599672B2, “KRAS proteolysis targeting chimeras” (PAQ Therapeutics Inc., priority 2023, dated 2026).

In experiment [1] the target is T1, KRAS G12V (Homo sapiens, UniProt P01116, G12V).
T1 construct: SW620-KRAS (G12V)-HiBit-KI cell (Pharmaron); host or cells: SW620-KRAS (G12V)-HiBit-KI cells (HiBiT knock-in at the endogenous KRAS locus)
Nature of the experiment: KRAS G12V HiBit assay. The experiment is classed as cell-based. The following applies: SW620-KRAS (G12V)-HiBit-KI cells, compound treatment for 24 hours, class symbols. In outline:
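Luminescence from lytic Nano-Glo HiBiT detection with LgBiT read KRAS G12V levels after 24 h compound exposure. Dilutions were 10-point, 3-fold, from a 0.3 mM DMSO stock. Degradation activity was normalised to cells given 0.1% DMSO alone.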
(In general: HiBiT is a short tag that completes a luciferase, so light tracks the accessible tagged protein.)

The target in experiment [2] is T2, KRAS G12D (Homo sapiens, UniProt P01116, G12D).
T2 construct: AsPc-1-KRAS (G12D)-HiBit-KI cell (Pharmaron); host or cells: AsPc-1-KRAS (G12D)-HiBit-KI cells (HiBiT knock-in at the endogenous KRAS locus)
In words: KRAS G12D HiBit assay. In kind it is cell-based. The following applies: AsPc-1-KRAS (G12D)-HiBit-KI cell, compound treatment for 24 hours; for DC50: absolute DC50. In a few lines:
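HiBiT luminescence, detected by adding lytic buffer, substrate and LgBiT protein, served as the KRAS G12D read-out. Compounds, serially diluted 3-fold over 10 points from 0.3 mM DMSO stock, were on cells for 24 h; percent inhibition normalized to cells given 0.1% DMSO only.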

The mark [3] stands for this setting: numeric bounds given in place of class symbols.

Bounds are passed on as bounds.

T1 sequence (P01116 1-188 isoform P01116-2 G12V): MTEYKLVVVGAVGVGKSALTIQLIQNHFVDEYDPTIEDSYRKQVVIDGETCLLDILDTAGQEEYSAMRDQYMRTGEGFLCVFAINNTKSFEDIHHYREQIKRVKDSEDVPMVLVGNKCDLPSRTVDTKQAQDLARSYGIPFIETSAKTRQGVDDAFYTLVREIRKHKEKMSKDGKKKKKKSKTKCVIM
T2 sequence (P01116 1-188 isoform P01116-2 G12D): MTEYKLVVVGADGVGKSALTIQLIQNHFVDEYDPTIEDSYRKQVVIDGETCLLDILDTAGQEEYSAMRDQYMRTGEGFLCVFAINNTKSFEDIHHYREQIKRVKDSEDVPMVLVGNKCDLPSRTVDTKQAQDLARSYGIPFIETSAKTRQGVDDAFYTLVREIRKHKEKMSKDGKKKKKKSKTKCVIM

For the compound `CCc1c(F)ccc2cc(O)cc(-c3ccc4c(N5CCC[C@@](C)(O)C5)nc(OCC56CCCN5C(COC(=O)N5CCC(CN7CCC(c8ccc9c(c8)n(C)c(=O)n9C8CCC(=O)NC8=O)CC7)CC5)CC6)nc4c3F)c12` (stereo partly drawn) [Compound 304, (7a-(((7-(8-ethyl-7-fluoro-3-hydroxynaphthalen-1-yl)-8-fluoro-4-((R)-3-hydroxy-3-methylpiperidin-1-yl)quinazolin-2-yl)oxy)methyl)hexahydro-1H-pyrrolizin-3-yl)methyl 4-((4-(1-(2,6-dioxopiperidin-3-yl)-3-methyl-2-oxo-2,3-dihydro-1H-benzo[d]imidazol-5-yl)piperidin-1-yl)methyl)piperidine-1-carboxylate], the DC50 in experiment [1] and in experiment [2] (setting [3]) was > 100 nM each time.

With `CCc1c(F)ccc2cc(O)cc(-c3ncc4c(N5CCC[C@@](C)(O)C5)nc(OC[C@@]56CCCN5[C@H](COC(=O)N5CCC(Oc7ccc(-c8ccc9c(c8)n(C)c(=O)n9C8CCC(=O)NC8=O)cc7)CC5)CC6)nc4c3F)c12` (stereo partly drawn) [Compound 496, ((3S,7aS)-7a-(((7-(8-ethyl-7-fluoro-3-hydroxynaphthalen-1-yl)-8-fluoro-4-((R)-3-hydroxy-3-methylpiperidin-1-yl)pyrido[4,3-d]pyrimidin-2-yl)oxy)methyl)hexahydro-1H-pyrrolizin-3-yl)methyl 4-(4-(1-(2,6-dioxopiperidin-3-yl)-3-methyl-2-oxo-2,3-dihydro-1H-benzo[d]imidazol-5-yl)phenoxy)piperidine-1-carboxylate], the DC50 in experiment [1] and in experiment [2] (setting [3]) was > 100 nM each time.

For the compound `C#Cc1c(F)ccc2cccc(-c3ncc4c(N5CCC[C@@](C)(O)C5)nc(OC[C@@]56CCCN5[C@H](COC(=O)N5CCC(C7CCN(c8ccc9c(c8)n(C)c(=O)n9C8CCC(=O)NC8=O)CC7)CC5)CC6)nc4c3F)c12` (stereo partly drawn) [Compound 152], the DC50 in experiment [1] and in experiment [2] (setting [3]) was > 100 nM in each case.

With `C#Cc1c(F)ccc2cccc(-c3ncc4c(N5CCC[C@@](C)(O)C5)nc(OC[C@@]56CCCN5[C@H](COC(=O)N5CCC(N7CCC(c8ccc9c(c8)n(C)c(=O)n9C8CCC(=O)NC8=O)CC7)CC5)CC6)nc4c3F)c12` (stereo partly drawn) [Compound 128, ((3S,7aS)-7a-(((7-(8-Ethynyl-7-fluoronaphthalen-1-yl)-8-fluoro-4-((R)-3-hydroxy-3-methylpiperidin-1-yl)pyrido[4,3-d]pyrimidin-2-yl)oxy)methyl)hexahydro-1H-pyrrolizin-3-yl)methyl 4-(1-(2,6-dioxopiperidin-3-yl)-3-methyl-2-oxo-2,3-dihydro-1H-benzo[d]imidazol-5-yl)-[1,4′-bipiperidine]-1′-carboxylate], the DC50 is > 100 nM in experiment [1] and > 300 nM in experiment [2] (class symbols).

`C#Cc1c(F)ccc2cc(O)cc(-c3ncc4c(N5CCC[C@@](C)(O)C5)nc(OC[C@@]56CCCN5[C@H](COC(=O)N5CCC(CN7CCC(c8cccc9c8n(C)c(=O)n9C8CCC(=O)NC8=O)CC7)CC5)CC6)nc4c3F)c12` (stereo partly drawn) [Compound 133]: the results for the DC50 in experiment [1] and in experiment [2] (class symbols) were 10 to 100 nM and < 100 nM, respectively.

Take `CCc1c(F)ccc2cc(O)cc(-c3ncc4c(N5CCC[C@@](C)(O)C5)nc(OC[C@@]56CCCN5[C@H](COC(=O)N5CCC(CN7CC8(CCC(c9ccc%10c(c9)n(C)c(=O)n%10C9CCC(=O)NC9=O)CC8)C7)CC5)CC6)nc4c3F)c12` (stereo partly drawn) [Compound 364, ((3S,7aS)-7a-(((7-(8-ethyl-7-fluoro-3-hydroxynaphthalen-1-yl)-8-fluoro-4-((R)-3-hydroxy-3-methylpiperidin-1-yl)pyrido[4,3-d]pyrimidin-2-yl)oxy)methyl)hexahydro-1H-pyrrolizin-3-yl)methyl 4-((7-(1-(2,6-dioxopiperidin-3-yl)-3-methyl-2-oxo-2,3-dihydro-1H-benzo[d]imidazol-5-yl)-2-azaspiro[3.5]nonan-2-yl)methyl)piperidine-1-carboxylate]: the DC50 in experiment [1] was < 10 nM; in experiment [2] (class symbols), < 100 nM.

For `C#Cc1c(F)ccc2cc(O)cc(-c3ncc4c(N5CCCCCC5)nc(OCC5(CN6CCN(CC7CCN(c8ccc9c(c8)n(C)c(=O)n9C8CCC(=O)NC8=O)CC7)CC6)CC5)nc4c3F)c12` (stereo not drawn) [Compound 16], the DC50 in experiment [1] is > 100 nM. In experiment [2] (class symbols), the DC50 is < 100 nM and the Dmax is > 50%.

`CCc1c(F)ccc2cc(O)cc(-c3ccc4c(N5CCC[C@@](C)(O)C5)nc(OC[C@]56CCCN5[C@H](COC(=O)N5CCC(CN7CCC(c8ccc9c(c8)n(C)c(=O)n9C8CCC(=O)NC8=O)CC7)CC5)CC6)nc4c3F)c12` (stereo partly drawn) [Compound 318, ((3S,7aR)-7a-(((7-(8-ethyl-7-fluoro-3-hydroxynaphthalen-1-yl)-8-fluoro-4-((R)-3-hydroxy-3-methylpiperidin-1-yl)quinazolin-2-yl)oxy)methyl)hexahydro-1H-pyrrolizin-3-yl)methyl 4-((4-(1-(2,6-dioxopiperidin-3-yl)-3-methyl-2-oxo-2,3-dihydro-1H-benzo[d]imidazol-5-yl)piperidin-1-yl)methyl)piperidine-1-carboxylate]: the DC50 in experiment [1] and in experiment [2] (setting [3]) was > 100 nM each time.

On to `C#Cc1cccc2cc(O)cc(-c3ncc4c(N5CCC[C@@](C)(O)C5)nc(OC[C@@]56CCCN5[C@H](COC(=O)N5CCC(CN7CCC(c8ccc9c(c8)n(C)c(=O)n9C8CCC(=O)NC8=O)CC7)CC5)CC6)nc4c3F)c12` (stereo partly drawn) [Compound 144], for which the DC50 in experiment [1] was < 10 nM; in experiment [2] (class symbols), < 100 nM.

As for `CCc1c(F)ccc2cc(O)cc(-c3ncc4c(N5CCC[C@@](C)(O)C5)nc(OC[C@@]56CCCN5[C@H](COC(=O)N5CCC(N7CC8(CCC(c9ccc%10c(c9)n(C)c(=O)n%10C9CCC(=O)NC9=O)CC8)C7)CC5)CC6)nc4c3F)c12` (stereo partly drawn) [Compound 363, ((3S,7aS)-7a-(((7-(8-ethyl-7-fluoro-3-hydroxynaphthalen-1-yl)-8-fluoro-4-((R)-3-hydroxy-3-methylpiperidin-1-yl)pyrido[4,3-d]pyrimidin-2-yl)oxy)methyl)hexahydro-1H-pyrrolizin-3-yl)methyl 4-(7-(1-(2,6-dioxopiperidin-3-yl)-3-methyl-2-oxo-2,3-dihydro-1H-benzo[d]imidazol-5-yl)-2-azaspiro[3.5]nonan-2-yl)piperidine-1-carboxylate], the DC50 in experiment [1] was < 10 nM; in experiment [2] (class symbols) it was < 100 nM.

Turning to `CCc1c(F)ccc2cc(O)cc(-c3ncc4c(N5CCC[C@@](C)(O)C5)nc(OC[C@@]56CCCN5[C@H](COC(=O)c5ccc(N7CCC(c8ccc9c(c8)n(C)c(=O)n9C8CCC(=O)NC8=O)CC7)cc5)CC6)nc4c3F)c12` (stereo partly drawn) [Compound 495, ((3S,7aS)-7a-(((7-(8-ethyl-7-fluoro-3-hydroxynaphthalen-1-yl)-8-fluoro-4-((R)-3-hydroxy-3-methylpiperidin-1-yl)pyrido[4,3-d]pyrimidin-2-yl)oxy)methyl)hexahydro-1H-pyrrolizin-3-yl)methyl 4-(4-(1-(2,6-dioxopiperidin-3-yl)-3-methyl-2-oxo-2,3-dihydro-1H-benzo[d]imidazol-5-yl)piperidin-1-yl)benzoate], the DC50 in experiment [1] was 10 to 100 nM; in experiment [2] (class symbols), < 100 nM.

Regarding `C#Cc1c(F)ccc2cccc(-c3ncc4c(N5CCC[C@@](C)(O)C5)nc(OCC5(CN6CCC(CN7CCN(c8ccc9c(c8)C(=O)N(C8CCC(=O)NC8=O)C9=O)CC7)CC6)CC5)nc4c3F)c12` (stereo partly drawn) [Compound 49], the DC50 is > 100 nM in experiment [1] and > 160 nM in experiment [2] (setting [3]).

As for `CCc1c(F)ccc2cccc(-c3ncc4c(N5CCC[C@@](C)(O)C5)nc(OC[C@@]56CCCN5[C@H](COC(=O)N5CCC(CN7CCC(c8ccc9c(c8)n(C)c(=O)n9C8CCC(=O)NC8=O)CC7)CC5)CC6)nc4c3F)c12` (stereo partly drawn) [Compound 94, [(3S,8S)-8-[[7-(8-ethyl-7-fluoro-1-naphthyl)-8-fluoro-4-[(3R)-3-hydroxy-3-methyl-1-piperidyl]pyrido[4,3-d]pyrimidin-2-yl]oxymethyl]-1,2,3,5,6,7-hexahydropyrrolizin-3-yl]methyl-4-[[4-[1-(2,6-dioxo-3-piperidyl)-3-methyl-2-oxo-benzimidazol-5-yl]-1-piperidyl]methyl]piperidine-1-carboxylate], the DC50 in experiment [1] was > 100 nM. Also, in experiment [2] (class symbols), the DC50 was < 100 nM and the Dmax was > 50%.

On to `CCc1c(F)ccc2cc(O)cc(-c3ncc4c(N5CCC[C@H]5CO)nc(OC[C@@]56CCCN5[C@H](COC(=O)N5CCC7(CC5)CC(N5CCC(c8ccc9c(c8)n(C)c(=O)n9C8CCC(=O)NC8=O)CC5)C7)CC6)nc4c3F)c12` (stereo partly drawn) [Compound 351, ((3S,7aS)-7a-(((7-(8-ethyl-7-fluoro-3-hydroxynaphthalen-1-yl)-8-fluoro-4-((S)-2-(hydroxymethyl)pyrrolidin-1-yl)pyrido[4,3-d]pyrimidin-2-yl)oxy)methyl)hexahydro-1H-pyrrolizin-3-yl)methyl 2-(4-(1-(2,6-dioxopiperidin-3-yl)-3-methyl-2-oxo-2,3-dihydro-1H-benzo[d]imidazol-5-yl)piperidin-1-yl)-7-azaspiro[3.5]nonane-7-carboxylate], for which the results for the DC50 in experiment [1] and in experiment [2] (class symbols) were < 10 nM and < 100 nM, respectively.
